Laboratory results taken from patent EP1069898B1, “TOPICAL ANTISEPTIC COMPOSITIONS AND METHODS” (MARGOLIN, Solomon B., priority 1998, dated 1999).

Columns and labels:
Aspergillus niger = assay: Preliminary antimicrobial test, plate growth score; assay type: cell-based
Pseudomonas aeruginosa = assay: Preliminary antimicrobial test, plate growth score; assay type: cell-based; set-up: key: 1=very slight; 2=slight; 3=slight to moderate; 4=moderate; 10=total plate growth (maximal growth)
Staphylococcus aureus = assay: Preliminary antimicrobial test, plate growth score; assay type: cell-based
[1] = system: Trychophton mentagrophytes; assay: Preliminary antimicrobial test, plate growth score; assay type: cell-based; set-up: key: 1=very slight; 2=slight; 3=slight to moderate; 4=moderate; 10=total plate growth (maximal growth)
[2] = Primary rabbit acute eye irritation test (Draize method); assay type: in vivo; conditions: 2.0% sterile aqueous solution, 0.1 ml. per eye; six albino rabbits; examined up to 10 days
Procedure: The eyes were carefully examined at 1.0 minutes, 30 minutes, and 3 hours after applying the solution, and then repeatedly examined for 10 days after the application of the pirfenidone solution (0.1 ml. per eye).
The eyes were carefully examined at 1, 3, 8, 24, and 48 hours and carefully re-examined daily for 10 days after the application of the ointment (100 milligrams per eye).

[3] = Storage stability (chemical assays and physical characteristics); assay type: physicochemical; conditions: crystalline; 25 degrees Centigrade
Text: A critical feature of the compositions of this invention is the chemical stability of the active ingredient(s), pirfenidone and/or related compounds. Crystalline pirfenidone is stable at room temperature (i.e., 25 degrees Centigrade) for more than five years. The formulations described above are stable for two years or longer at 25 degrees Centigrade (room temperature), based upon chemical assays and upon physical characteristics (color, plasticity, active ingredient dispersion and suspension).

Bacillus subtilis = assay: Preliminary antimicrobial test, plate growth score; assay type: cell-based
Candida albicans = assay: Preliminary antimicrobial test, plate growth score; assay type: cell-based; set-up: key: 1=very slight; 2=slight; 3=slight to moderate; 4=moderate; 10=total plate growth (maximal growth)
Proteus vulgaris = assay: Preliminary antimicrobial test, plate growth score; assay type: cell-based
Escherichia coli = assay: Preliminary antimicrobial test, plate growth score; assay type: cell-based
[4] = Pirfenidone concentration 5.0 wt.%
[5] = Pirfenidone concentration 10.0 wt.%

## Cc1ccc(=O)n(-c2ccccc2)c1 [Pirfenidone, 5-methyl-1-phenyl-2-(1H) pyridone]
Aspergillus niger; [4]
  GROWTH SCORES (0 TO 10): 0
Aspergillus niger; [5]
  GROWTH SCORES (0 TO 10): 0
Pseudomonas aeruginosa; Pirfenidone concentration 2.0 wt.%
  GROWTH SCORES (0 TO 10): 1
Pseudomonas aeruginosa; [4]
  GROWTH SCORES (0 TO 10): 0
Pseudomonas aeruginosa; [5]
  GROWTH SCORES (0 TO 10): 0
Staphylococcus aureus; [4]
  GROWTH SCORES (0 TO 10): 0
Staphylococcus aureus; [5]
  GROWTH SCORES (0 TO 10): 0
[1]; [4]
  GROWTH SCORES (0 TO 10): 2
[1]; [5]
  GROWTH SCORES (0 TO 10): 0
[2]
  eye irritation (hyperemia, edema, eye discomfort, chemotaxis): failed to cause any irritation
[3]
  stable at room temperature: more than five
Bacillus subtilis; [4]
  GROWTH SCORES (0 TO 10): 0
Bacillus subtilis; [5]
  GROWTH SCORES (0 TO 10): 0
Candida albicans; [4]
  GROWTH SCORES (0 TO 10): 2
Candida albicans; [5]
  GROWTH SCORES (0 TO 10): 0
Proteus vulgaris; [4]
  GROWTH SCORES (0 TO 10): 0
Proteus vulgaris; [5]
  GROWTH SCORES (0 TO 10): 0
Escherichia coli; [4]
  GROWTH SCORES (0 TO 10): 0
Escherichia coli; [5]
  GROWTH SCORES (0 TO 10): 0
